Reference: ChEMBL document CHEMBL1201862, “PubChem BioAssay data set” (2004)
“And” between values parts separate entries of the source, which are not always exact repeats. Equal values may be shown once.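 Tested at 5 concentrations; 48 h exposure; 96-well plates; endpoints linearly interpolated, else capped at highest concentration. Abbreviation: GI50, concentration required for 50% inhibition of growth.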 The source made the active and inactive calls. Cut-off read from the data, not from the text of the source: active = GI50 up to about 1.1 µM and inactive = higher.

Key:
Assay in all cases: NCI anticancer screen, dose series, 48 h
TK-10 = tested on: TK-10
MDA-MB-435 = tested on: MDA-MB-435
786-0 = tested on: 786-0
NCI-H226 = tested on: NCI-H226
CCRF-CEM = tested on: CCRF-CEM
Hs-578T = tested on: Hs-578T
OVCAR-8 = tested on: OVCAR-8
MDA-N = tested on: MDA-N
SF-295 = tested on: SF-295
SK-MEL-5 = tested on: SK-MEL-5
OVCAR-3 = tested on: OVCAR-3
UACC-62 = tested on: UACC-62
UACC-257 = tested on: UACC-257
DU-145 = tested on: DU-145
OVCAR-4 = tested on: OVCAR-4
SW-620 = tested on: SW-620
HT-29 = tested on: HT-29
KM12 = tested on: KM12
NCI-H23 = tested on: NCI-H23
MDA-MB-231 = tested on: MDA-MB-231

SMILES	GI50 (TK-10)	GI50 (MDA-MB-435)	GI50 (786-0)	GI50 (NCI-H226)	GI50 (CCRF-CEM)	GI50 (Hs-578T)	GI50 (OVCAR-8)	GI50 (MDA-N)	GI50 (SF-295)	GI50 (SK-MEL-5)	GI50 (OVCAR-3)	GI50 (UACC-62)	GI50 (UACC-257)	GI50 (DU-145)	GI50 (OVCAR-4)	GI50 (SW-620)	GI50 (HT-29)	GI50 (KM12)	GI50 (NCI-H23)	GI50 (MDA-MB-231)
c1ccc2sc(C3(N4CCC5(CC4)OCCO5)CCCCC3)cc2c1	90.6 µM (inactive)	58.6 µM (inactive)	99.1 µM (inactive)	18.6 µM (inactive)	29 µM (inactive)	> 100 µM (inactive)	> 100 µM (inactive)	80.4 µM (inactive)	> 100 µM (inactive)	50.5 µM (inactive)	> 100 µM (inactive)	> 100 µM (inactive)	60.1 µM (inactive)	> 100 µM (inactive)	> 100 µM (inactive)	> 100 µM (inactive)	21.1 µM (inactive)	56.4 µM (inactive)	> 100 µM (inactive)	–
COc1ccc2[nH]c3c(c2c1)CC(=O)N1CCCC(CC3O)C1 (stereo unspecified)	> 100 µM (inactive)	> 100 µM (inactive)	> 100 µM (inactive)	> 100 µM (inactive)	–	> 100 µM (inactive)	> 100 µM (inactive)	> 100 µM (inactive)	> 100 µM (inactive)	> 100 µM (inactive)	–	> 100 µM (inactive)	> 100 µM (inactive)	> 100 µM (inactive)	> 100 µM (inactive)	> 100 µM (inactive)	> 100 µM (inactive)	> 100 µM (inactive)	> 100 µM (inactive)	> 100 µM (inactive)
N#CCCN(CCC#N)c1ccc(/C=C2\N=C(c3ccccc3)N(c3ccc(C(=O)O)cc3)C2=O)cc1	> 100 µM (inactive)	31.8 µM (inactive)	52 µM (inactive)	27.9 µM (inactive)	–	22.3 µM (inactive)	26.2 µM (inactive)	> 100 µM (inactive)	48.8 µM (inactive)	36.6 µM (inactive)	40.1 µM (inactive)	23.8 µM (inactive)	37.2 µM (inactive)	69.2 µM (inactive)	14.4 µM (inactive)	21 µM (inactive)	95.1 µM (inactive)	17.2 µM (inactive)	–	52 µM (inactive)
Clc1cccc(Cl)c1C(Nc1nncs1)Nc1nncs1	23.9 µM (inactive)	11.1 µM (inactive)	28.7 µM (inactive)	26.9 µM (inactive)	–	71.3 µM (inactive)	33.8 µM (inactive)	9.27 µM (inactive)	38.2 µM (inactive)	32.5 µM (inactive)	46.7 µM (inactive)	67 µM (inactive)	18.2 µM (inactive)	51.5 µM (inactive)	59.4 µM (inactive)	20.7 µM (inactive)	14.1 µM (inactive)	27.7 µM (inactive)	40.2 µM (inactive)	> 100 µM (inactive)
O=C1N/C(=N/N=C\C(O)C(O)C(O)C(O)CO)N/C1=C/c1ccc(Cl)cc1 (stereo unspecified)	> 100 µM (inactive)	> 100 µM (inactive)	> 100 µM (inactive)	74.8 µM (inactive)	40.4 µM (inactive)	> 100 µM (inactive)	> 100 µM (inactive)	> 100 µM (inactive)	> 100 µM (inactive)	> 100 µM (inactive)	43.6 µM (inactive) and 31.6 µM (inactive)	–	> 100 µM (inactive)	> 100 µM (inactive)	37.2 µM (inactive) and 17.7 µM (inactive)	> 100 µM (inactive)	> 100 µM (inactive)	> 100 µM (inactive)	> 100 µM (inactive)	> 100 µM (inactive)
CCn1c(SCC(=O)NNC(=S)Nc2ccc([N+](=O)[O-])cc2)nc2ccccc2c1=O	68.9 µM (inactive)	> 100 µM (inactive)	60.5 µM (inactive)	90.4 µM (inactive)	37.2 µM (inactive)	> 100 µM (inactive)	> 100 µM (inactive)	> 100 µM (inactive)	58.2 µM (inactive)	79.6 µM (inactive)	39.2 µM (inactive)	48.9 µM (inactive)	> 100 µM (inactive)	> 100 µM (inactive)	48.5 µM (inactive)	86.5 µM (inactive)	–	68.2 µM (inactive)	62.5 µM (inactive)	> 100 µM (inactive)
c1ccc2c(c1)nc1n2CCSC1	> 100 µM (inactive)	> 100 µM (inactive)	> 100 µM (inactive)	–	> 100 µM (inactive)	> 100 µM (inactive)	–	> 100 µM (inactive)	> 100 µM (inactive)	> 100 µM (inactive)	> 100 µM (inactive)	> 100 µM (inactive)	> 100 µM (inactive)	> 100 µM (inactive)	> 100 µM (inactive)	> 100 µM (inactive)	> 100 µM (inactive)	> 100 µM (inactive)	> 100 µM (inactive)	> 100 µM (inactive)
CN1C2CCC1CC(CCOC(c1ccc(F)cc1)c1ccc(F)cc1)C2 (stereo unspecified)	15.3 µM (inactive)	12.4 µM (inactive)	15.9 µM (inactive)	15.3 µM (inactive)	18.4 µM (inactive)	17.8 µM (inactive)	17.3 µM (inactive)	14.5 µM (inactive)	16.9 µM (inactive)	9.23 µM (inactive)	16 µM (inactive)	–	17.1 µM (inactive)	15.7 µM (inactive)	17.4 µM (inactive)	19.4 µM (inactive)	6.73 µM (inactive)	14.8 µM (inactive)	19.5 µM (inactive)	16.2 µM (inactive)
Cc1cc(N(CCC#N)CCC#N)ccc1/C=C1N=C(/C=C\c2ccccc2)N(c2ccc(Cl)cc2)C\1=O	> 53.3 µM (inactive)	–	54.8 µM (inactive)	> 100 µM (inactive)	3.4 µM (inactive)	> 100 µM (inactive)	> 40.8 µM (inactive)	> 100 µM (inactive)	4.57 µM (inactive)	0.43 µM (active)	40.5 µM (inactive)	0.746 µM (active)	> 54.6 µM (inactive)	> 100 µM (inactive)	> 39.4 µM (inactive)	11.6 µM (inactive)	2.11 µM (inactive)	4.52 µM (inactive)	36.6 µM (inactive)	> 100 µM (inactive)
O=c1c2ccccc2nc2n1C(c1ccc([N+](=O)[O-])cc1)C2(c1ccccc1)c1ccccc1 (stereo unspecified)	> 100 µM (inactive)	> 100 µM (inactive)	> 100 µM (inactive)	–	8.45 µM (inactive)	66.2 µM (inactive)	> 100 µM (inactive)	> 100 µM (inactive)	> 100 µM (inactive)	> 100 µM (inactive)	> 100 µM (inactive)	> 100 µM (inactive)	> 100 µM (inactive)	> 100 µM (inactive)	> 100 µM (inactive)	> 100 µM (inactive)	9.98 µM (inactive)	> 100 µM (inactive)	> 100 µM (inactive)	> 100 µM (inactive)
CN(C)c1ccc(/C=C2\C[C@H]3[C@@H]4CCC5=CC(=O)CC[C@]5(C)[C@H]4CC[C@]3(C)C2=O)cc1	32.5 µM (inactive)	–	48 µM (inactive)	62.4 µM (inactive)	–	38.4 µM (inactive)	31.8 µM (inactive)	19.5 µM (inactive)	> 100 µM (inactive)	12.4 µM (inactive)	88.1 µM (inactive)	20 µM (inactive)	19 µM (inactive)	76.6 µM (inactive)	59.7 µM (inactive)	48.9 µM (inactive)	23.9 µM (inactive)	72.1 µM (inactive)	52.7 µM (inactive)	38.9 µM (inactive)
C[C@@H]1C(=O)O[C@@H]2C[C@@]1(C)[C@@H]1C(=O)C3(O)OC14C2(C)OC(=O)[C@@]4(O)CCC1C3C(O)C=C2CC=CC(=O)[C@@]21C (stereo partly specified)	36.9 µM (inactive)	20.4 µM (inactive)	33.1 µM (inactive)	–	13.6 µM (inactive)	20.9 µM (inactive)	31.3 µM (inactive)	28.9 µM (inactive)	33.3 µM (inactive)	33 µM (inactive)	–	22 µM (inactive)	31 µM (inactive)	30.3 µM (inactive)	27.8 µM (inactive)	40.2 µM (inactive)	34 µM (inactive)	26.6 µM (inactive)	–	28.8 µM (inactive)
CCCCNC(=S)c1ccc(OC(=O)Nc2ccc(Cl)cc2)cc1	–	70.1 µM (inactive)	> 100 µM (inactive)	–	26.3 µM (inactive)	57.7 µM (inactive)	12.6 µM (inactive)	> 100 µM (inactive)	> 100 µM (inactive)	20 µM (inactive)	66.5 µM (inactive)	0.914 µM (active)	77.4 µM (inactive)	> 100 µM (inactive)	8.43 µM (inactive)	> 100 µM (inactive)	8.18 µM (inactive)	2.75 µM (inactive)	31.2 µM (inactive)	–
CC(=O)Oc1ccc2c(c1)O/C(=C\c1ccc(N(C)C)cc1)C2=O	> 100 µM (inactive)	35.3 µM (inactive)	> 100 µM (inactive)	> 100 µM (inactive)	82.4 µM (inactive)	21 µM (inactive)	> 100 µM (inactive)	36.4 µM (inactive)	–	> 100 µM (inactive)	–	> 100 µM (inactive)	> 100 µM (inactive)	> 100 µM (inactive)	75.2 µM (inactive)	52.2 µM (inactive)	> 100 µM (inactive)	90.8 µM (inactive)	> 100 µM (inactive)	68.5 µM (inactive)
O=[N+]([O-])C(C(Cl)=C(Cl)Cl)=C(N(Cc1ccccc1)Cc1ccccc1)N(Cc1ccccc1)Cc1ccccc1	> 100 µM (inactive)	28.2 µM (inactive)	48.8 µM (inactive)	36.6 µM (inactive)	22.2 µM (inactive)	> 100 µM (inactive)	> 100 µM (inactive)	45.3 µM (inactive)	27.9 µM (inactive)	42.8 µM (inactive)	> 100 µM (inactive)	> 100 µM (inactive)	> 100 µM (inactive)	> 100 µM (inactive)	–	> 100 µM (inactive)	33 µM (inactive)	> 100 µM (inactive)	> 100 µM (inactive)	70.6 µM (inactive)
